# Tests used:
# [1] = tested on: HHV-6; test: HHV-6 U65 gene copies by qPCR in iciHHV6 PBMCs treated with antiviral agents; format: cell-based, Human herpesvirus 6; conditions: 15 days culture, concentrations of Table 2
# Text: (§1) We next examined the effects of other known antiviral agents on controlling HHV-6 reactivation using PBMCs with integrate HHV-6 genomes (iciHHV6) to mimic continuous low levels of HHV-6 infection. Ganciclovir, cidofovir and foscarnet are all small molecule inhibitors of HHV viral DNA polymerase. Artesunate is a small molecule antiviral agent targeting HHV immediate early genes. […] See e.g., hhv-6foundation.org/research/hhv-6-antiviral-drug-resistance; Reyman et al., 1995, Antiviral Res. 28:343-57; and Vittayawacharin et al., 2023, Transplant Cell Ther. 29:397. The cells were cultured in X-vivo supplemented media for three days before being split into 4 subcultures. Afterwards, cells were cultured for 15 additional days, with media exchange twice a week, each time containing a fresh dose of the same antiviral agent at the same initial concentration. Cell sampling was taken on different days after the antiviral agent was first added. The effect of the antiviral agent on the viability of cells were analyzed by using a cellular apoptosis screening kit (Thermo Cat #V13242),.
# Next, HHV-6 replication was analyzed by detecting copies of HHV-6 gene U65 by qPCR.
# (§2) Genomic DNA was extracted from cells and DNA levels of HHV-6 were determined by quantitative PCR (qPCR). The experiment was carried out using the ThermoFisher Scientific, TaqMan™ Fast Virus 1-Step Master Mix, (Catalog number: 4444434).
# [2] = tested on: PBMCs with integrate HHV-6 genomes (iciHHV6); format: cell-based, human
# Text: as §1
# [3] = tested on: HHV-6; conditions: in vitro anti-HHV-6 activity, literature; read-out: EC50 (Reyman 1995); cited from earlier work
# [4] = tested on: HHV-6 viral antigen p41; test: Small-scale CAR T process with HHV-6B infection, p41 viral antigen by flow cytometry; format: cell-based, human herpesvirus 6B (strain Z-29); conditions: IFNα 0.1 ng/mL, D18, both donors
# Text: (§3) HHV-6 reactivation from PBMC is an extremely rare event in CAR T manufacturing based on existing data. To investigate the feasibility of using IFNα in controlling HHV-6 infectivity, we designed experiments to test the effects of IFNα in the manufacturing process by deliberately introducing active HHV-6 infection. In brief, the PBMCs from two different donors were thawed from frozen storage and cultured in complete media (5% HS+X-vivo+Supplements) for activation and LVV transduction. After electroporation of cells with TALEN mRNA, the T cells were infected with HHV-6B (strain Z-29) at MOI=0.4 for 3 hrs, then transferred to the G-Rex bioreactor for expansion for 10 days (Day 8 to Day 18). IFNα was added into the complete media at different concentrations (100 ng/mL, 10 ng/mL, 1 ng/mL and 0.1 ng/mL) on D8 after the 3 hrs of HHV-6 infection and kept in culture until the end of the expansion period. Cell samples were collected on D11, D13, D15 and D18, i.e., three, five, seven, and ten days post infection, to determine the HHV-6 virus infectivity by RT-qPCR assay (FIG. 4B), flow cytometry detection (FIG. 4C), and qPCR assay (FIG. 4D). […]
# HHV6 infectivity was determined by intracellular staining using antibody against HHV-6 p41 protein at 1 μg/mL and FACS analysis was performed to determine the percent of cells expressing the viral protein.
# [5] = tested on: CAR T cells
# [6] = tested on: HHV-6; test: HHV-6 U31 viral DNA by qPCR in thawed CAR T drug product cultured with IFNα; format: cell-based, Human herpesvirus 6; conditions: both lots of DP (Batch 1 HHV-6 high, Batch 2 low); IFNα 0.01, 1, 100 ng/mL; D1-D7
# Text: Drug product (DP) for experiment was selected based on the results of screening for HHV-6, among other adventitous agents, at the end of cell engineering process. Batch #1 was one of a few rare occurrences of DP with “positive” levels of HHV-6 and was chosen for the following studies (designated as the “HHV-6 high” group), while Batch #2 was chosen as the “low”-level counterpart. DP vials were retrieved from LN2, thawed and each split into 4 day 0 (D0) flasks. We first tested the effects of a type I IFN, such as IFNα, on the replication and infectivity of HHV-6. Flasks received either complete media (X-vivo +5% human serum (HS)+supplements) or complete media with added IFNα (human IFN-α2a at 100 ng/mL, 1 ng/mL and 0.01 ng/mL, Miltenyi). Cells were cultured for 7 additional days (D1-D7), with daily collections of cells from all conditions for freezing. Media was replaced every three days, with or without added IFNα for corresponding flasks.
# Post-cell culture, DNA was extracted from the collected samples, and analyzed by qPCR for HHV-6 marker U31 as described in Material & Methods.
# as §2
# [7] = tested on: HHV-6; test: Timing of IFNα addition before HHV-6 infection, viral DNA by qPCR; format: cell-based, Human herpesvirus 6; conditions: data not shown
# [8] = tested on: HHV-6B (strain Z-29); test: Small-scale CAR T process with HHV-6B infection, viral RNA (U79, U90, U100) by RT-qPCR; format: cell-based, human herpesvirus 6B (strain Z-29)
# Text: as §3
# Total RNA was extracted from cells and analyzed using reverse transcription qPCR (RT-qPCR) assay for U79, U90, U100 and GAPDH genes to determine HHV-6 infectivity.
# [9] = tested on: HHV-6B (strain Z-29); test: Small-scale CAR T process with HHV-6B infection, U31 DNA by qPCR; format: cell-based, human herpesvirus 6B (strain Z-29); conditions: IFNα 0.1 ng/mL, process D18
# Text: as §3, with “4D). Description of RT-qPCR assay, flow cytometry, and genomic DNA qPCR assay are shown in Materials & Methods.” for “4D).”
# Genomic DNA was extracted from cells and DNA levels of HHV-6 were determined by quantitative PCR (qPCR). […]
# [10] = tested on: HHV-6; test: Timing of IFNα addition before HHV-6 infection, U100 and U79 transcripts by RT-qPCR; format: cell-based, Human herpesvirus 6
# Method: To mimic the rare reactivation event, PBMC-derived CAR T cells were infected with exogenous HHV-6 at an MOI of 0.4 on Day 8 of the small scale manufacturing process. Cells were treated with IFNα at a concentration of 1 ng/μL or 10 ng/μL on Day 0 (preactivation), Day 1 (activation), Day 4, or Day 6, or untreated throughout the process. All cultures were infected with HHV-6 on Day 8, regardless whether the cells were pre-treated with IFNα or left untreated.
# The effects of IFNα on HHV-6 infection were analyzed in cells from two different donors. The transcripts of viral genes U100 (FIGS. 6A and 7A) and U79 (FIGS. 6B and 7B) were analyzed by RT-qPCR at the time points of three, seven and ten days post infection (i.e., on Day 11, Day 15 and Day 18 of the small scale manufacturing process). The y-axis reprepresents relative-fold change for each value compared to the endogenous GAPDH as well as untreated donor RNA (Day 0 before IFNα treatment).
# [11] = tested on: HHV-6B in CEM-HHV6 cells; test: CEM-HHV6 latency/reactivation model, HHV-6 qPCR after sodium butyrate and PMA reactivation; format: cell-based, human herpesvirus 6B (strain Z-29)
# Method: We next tested whether viral reactivation can be induced in the latency cell culture model. CEM-HHV6 cells (1×10^7) were reactivated using 100 ng/mL of PMA (phorbol-12-myristate-13-acetate, Cat #500582 Millipore-Sigma) and 1 mM NaButyrate (Cat #19-137, Millipore-Sigma) final concentration for 2 days at 37° C. On day 2 cells were washed and resuspended in RPMI+5% FBS and cultured for 18 days. Media was replenished as needed. CEM-HHV6 cells were collected on days 5, 8, 12, 14, 16, and 19 post-reactivation. HHV-6B viral reactivation was assessed by qPCR analysis of the vgDNA of HHV-6B targeting the U31 and U65-66 genes. Untreated CEM-HHV6 cells were used as a negative control.
# The CEM-HHV6 reactivation model described in FIGS. 2A-F was utilized for testing the effects of IFNα in the cell culture model, similar to the testing carried out in DP (FIG. 1A). CEM-HHV6 cells were initially cultured in bulk before the start of the experiment. One day before the start of the experiment (D-1), an aliquot of the CEM-HHV6 cells was taken out and split before treatment with one of three IFNα concentrations (100 ng/mL, 1 ng/mL and 0.01 ng/mL), which constituted the “pre-treatment” of IFNα. Cells were collected from the beginning of the experiment (D0) and continuing every few days throughout. […]
# [12] = tested on: CAR T cells; test: CAR T cell expansion, % CAR+ and phenotype under IFNα in the HHV-6 infection model; conditions: IFNα 0.1 ng/mL to 10 ng/mL, added Day 8 to Day 18
# [13] = tested on: HHV-6 p41; test: Immunofluorescence of HHV-6 p41 protein in CAR T drug product culture; format: cell-based, Human herpesvirus 6
# Method: To test whether HHV-6 protein expression is affected by IFNα treatment, we performed immunofluorescence using an antibody specific for HHV-6 p41, an HHV-6 early gene product, on cells collected from D4 of the Batch 1 (“HHV-6 high”) DP culture.
# The cells were fixed with 4% paraformaldehyde and permeabilized using 0.5% saponin before incubating with HHV6 p41 antibody conjugated with Alexa-488 at 0.2 μg/mL. Cells were stained with DAPI prior to imaging at 20× magnification.
compound,measurement,setting,value
"Nc1nc2c(ncn2COC(CO)CO)c(=O)[nH]1 [Ganciclovir, ganciclovir]",HHV-6 levels (U65 gene copies by qPCR),[1],decreased viral load initially followed by an increase at later time points
same,cell health / apoptosis,[2],did not negatively affect cell health
same,EC50,[3],> 25 µM
"Nc1ccn(C[C@@H](CO)OCP(=O)(O)O)c(=O)n1 [Cidofovir, cidofovir]",HHV-6 levels (U65 gene copies by qPCR),[1],increased HHV-6 levels over the culture period
same,cell health / apoptosis,[2],induced higher level of apoptosis
same,EC50,[3],12 to 15 µM
"O=C(O)P(=O)(O)O [Foscarnet, foscarnet]",HHV-6 levels (U65 gene copies by qPCR),[1],maintain the HHV-6 levels at around their starting level
same,cell health / apoptosis,[2],did not negatively affect cell health
same,EC50,[3],8.4 µM
C[C@H]1[C@H](OC(=O)CCC(=O)O)O[C@@H]2O[C@@]3(C)CC[C@H]4[C@H](C)CC[C@@H]1[C@@]24OO3 [Artesunate],HHV-6 levels (U65 gene copies by qPCR),[1],increased HHV-6 levels over the culture period
same,cell health / apoptosis,[2],induced higher level of apoptosis
same,EC50,[3],3.8 µM
"IFNα: human IFN-α2a (Miltenyi), a type I IFN; exemplary sequence SEQ ID NO: 19/20",HHV-6 viral antigen p41 expression,[4],effectively reduced
same,proliferation of CAR-T cells,[5],could suppress the proliferation
same,HHV-6 viral DNA (U31) fold-change relative to D0,[6],reduction in the viral load compared to the control
same,viral load as determined by qPCR,"[7]; IFNα added on Day 6 (C7, C8)",lowest level of viral load
same,suppression of HHV-6 infection (U31 DNA qPCR),[7]; doses of IFNα added closer to infection,strongest suppression effect
same,HHV-6 viral RNA,"[8]; IFNα 10 ng/mL, D18",below detectable levels
same,"HHV-6 RNA levels (U79, U90, U100)","[8]; donor #1, lowest concentration of IFNα, D11 to D18",decreased from D11 to D18
same,decrease of HHV-6 DNA levels (U31),[9],16 to 38 fold
same,U79 transcript,[10]; IFNα added on Day 4 or Day 6 (samples C5-C8),decreased transcript
same,U100 transcript level,"[10]; IFNα added on Day 6 (conditions C7, C8; 10 and 1 ng/μL), infection Day 8, compared to C9",greatest reduction of U100 transcript level
same,"viral DNA, reactivated (RA) versus non-reactivated (NRA) samples",[11]; IFNα 100 ng/mL,virtually no distinction between the NRA and the RA samples
same,level of viral growth (HHV-6 DNA qPCR),"[11]; as the IFNα dosage increased (0.01, 1, 100 ng/mL), pre- or post-treatment",the level of viral growth was reduced
same,fold of CAR T cell expansion,[12],did not significantly affect
same,cells positive for HHV-6 p41 (immunofluorescence),"[13]; Batch 1 (HHV-6 high) DP culture, D4, increasing concentration of IFNα",fewer cells positive for HHV-6 p41
same,cells positive for HHV-6 p41 (immunofluorescence),"[13]; batch 2 (HHV-6 low) culture, D4, regardless of concentration used, data not shown",no detectable HHV-6 p41 positive cells
